# Measured values as given in patent US20130041036A1, “FERULIC ACID AS FEED SUPPLEMENT IN BEEF CATTLE TO PROMOTE ANIMAL GROWTH AND IMPROVE THE MEAT QUALITY OF THE CARCASS AND THE MEAT” (BIOKAB, S.A. DE C.V., priority 2011, published 2013).
# “Also recorded” adds a separate entry of the source. Marks after values point to notes of the source that are not given here.
# Experiments:
# Longissimus dorsi muscle [1] = assay: Chemical and physicochemical quality of Longissimus dorsi muscle from supplemented cattle; assay type: in vivo, beef cattle of commercial breeds; conditions: for SF: shear force: Warner-Bratzler; for L* value: fresh meat brightness; for a* value: fresh meat redness; for b* value: fresh meat yellowness; for pH: meat
# Experimental: (§1) Subsequent to the carcass classification the rib eye cut (LD muscle) was obtained of the left side of each selected carcass. Meat samples were identified, vacuum packed, frozen at -18° C., and then shipped under refrigeration by air courier to the Centro de Investigación en Alimentacion y Desarrollo A.C. (CIAD) facilities at Hermosillo, Sonora, to perform quality analysis of the meat: Chemical analysis (moisture and fat content), physicochemical (objective color parameters L*, which measures the brightness of the meat, a* value, which measures the redness, and b* value which measures the tendency towards yellowness, and hue-angle, Warner-Bratzler shear force, water retention capacity and pH). A sensory test was done by a trained panel consisting of 10 members using a descriptive test with a semi-structured 10 cm scale, where zero indicates a […] of the attribute and a 10 indicates a favorable rating (e.g. tenderness, zero indicates extremely hard and 10 extremely tender). The sensory attributes that were measured: total color and overall appearance of raw meat, flavor, odor, color, tenderness, fat perception, juiciness, and perception of connective tissue in cooked meat. […] To measure cooking loss, the meat sample was weighed before and immediately after reaching the final cooking temperature, which was expressed in percentage. All data for response variables of the quality of carcass and meat were analyzed under a completely randomized design, with a one-way ANOVA, taking the experimental treatments as a fixed effect. For carcass BFT and REA characteristics the hot carcass weight was used as a covariable. Regarding the sensory attributes, the model also included the effect of panelist as the repeated measure. The variables of the shelf life study were analyzed as a completely randomized design with factorial arrangement, factor A being the treatment with 4 levels, and factor B, the storage time with 5 levels. When there were statistical differences (P<0.05) between treatments, average comparisons were performed by the multiple range test of Tukey.
# beef cattle = assay: Feedlot performance and carcass quality of beef cattle; assay type: in vivo, beef cattle of commercial breeds; conditions: for CCW: cold carcass weight: carcass 24 hr at 0° C.; for PH45: pH at 45 min postmortem: Longissimus dorsi
# Text: In this study, all animals received the same prophylactic management, and all were subsequently assigned randomly to one of the following four treatments (25 animals per treatment, divided into pens of 5 experimental units per pen):
# Definition of the 4 Treatments
# Treatment 1 (Control): control animals (receiving only the basal diet without supplementation of the additive).
# Treatment 2 (Ferulic Acid for 30 days=FA30): Animals receiving the basal diet supplemented with 240 ppm of ferulic acid during the last 30 days of the fattening period.
# Treatment 3 (Ferulic Acid for 60 days=FA60): Animals receiving the basal diet supplemented with 240 ppm of ferulic acid during the last 60 days of the fattening period.
# Treatment 4 (Zilmax commercial Zilpaterp; =ZX): Animals receiving the basal diet and supplemented with 6 ppm hydrochloride zilpaterol during the last 30 days of the fattening period.
# During the experimental phase, all animals received a feeding ration consisting of 20% fodder and 80% concentrate. The crop was corn stover, while the concentrate consisted of different proportions of rolled corn grain, soybean meal, canola meal, distillery grains, and molasses. The ration was provided twice a day, and there was free access to the food and drinking water.
# Initial and final live weight was recorded in the productive performance trial. The performance test lasted 60 days. Daily feed intake was evaluated, weight was recorded at the beginning and end of experimental period, in order to estimate the average daily gain and feed conversion.
# Before concluding the performance test, 2 animals were randomly selected per pen (10 per treatment) for humanitarian slaughter. The animals were sacrificed following the standard procedures of the official Mexican standards in the municipal slaughterhouse of Guadalajara, Jalisco. Animal live weight was recorded before slaughter.
# During the slaughter process, the pH of the carcass at 45 min postmortem in the Longissimus dorsi muscle (LD) was measured and the weight of the hot carcass was recorded. The carcasses were refrigerated at 0° C. for 24 hr. After this, the final pH was measured and cold carcass weight recorded, and the classification of carcasses was carried out, recording the Rib eye area (REA) in square inches, back fat thickness (BFT) in mm, and the marbling in the 12th intercostal space of the LD; the skeletal maturity and conformation of the carcass was also evaluated (10 carcasses per treatment). The assessment of quality of the carcass was made following the procedures described by the US Department of Agriculture (USDA, 2000).
# (§2) All data for response variables of the quality of carcass and meat were analyzed under a completely randomized design, with a one-way ANOVA, taking the experimental treatments as a fixed effect. For carcass BFT and REA characteristics the hot carcass weight was used as a covariable. Regarding the sensory attributes, the model also included the effect of panelist as the repeated measure. The variables of the shelf life study were analyzed as a completely randomized design with factorial arrangement, factor A being the treatment with 4 levels, and factor B, the storage time with 5 levels. When there were statistical differences (P<0.05) between treatments, average comparisons were performed by the multiple range test of Tukey. All data was processed in the NCSS statistical package (NCSS, 2001).
# Longissimus dorsi muscle [2] = assay: Sensory test of Longissimus dorsi meat by trained panel; assay type: in vivo, beef cattle of commercial breeds; conditions: for Tenderness / Connective tissue perception / Fat perception / Flavor intensity / Juiciness / Odor intensity: cooked meat; for Tenderness: 10 cm scale, zero extremely hard, 10 extremely tender; for Connective tissue perception / Fat perception / Flavor intensity / Juiciness / Odor intensity / Appearance / Overall Color: semi-structured 10 cm scale; for Appearance / Overall Color: raw meat
# Experimental: as §1
# pigs = pigs supplemented with 50 ppm of ferulic acid; cited from earlier work
# Longissimus dorsi muscle [3] = assay: Shelf life study of refrigerated meat (colour, TBARS); assay type: in vivo, beef cattle of commercial breeds; conditions: for TBA values (lipid oxidation) during shelf life: FIG. 2
# Experimental: In order to estimate the antioxidant effect of ferulic acid, 5 chops of the meat samples were taken (5 experimental units) of the respective treatments, which were packed with traditional packaging (film wrapped) and subjected to a refrigeration process from 4 and 5° C. for 10 days in a room equipped for this purpose. During the shelf life (Day 1, 3, 5, 7 and 9 of storage) the objective color parameters mentioned above, as well as determination of substances reactive to thiobarbituric acid (TBARS) were evaluated according to the methodology described by Pfalzgraf et al. (1995). TBA values were expressed as substances reactive to 2-thiobarbituric acid (TBARS) in mg malonaldehyde/kg sample.
# as §2
# feedlot steers = conditions: steers supplemented with ractopamine compared to the control; cited from earlier work
# [4] = 240 ppm ferulic acid (FA30) or 6 ppm zilpaterol hydrochloride (ZX), last 30 days of fattening
# [5] = 240 ppm ferulic acid (FA30) or 6 ppm zilpaterol hydrochloride (ZX) in diet, last 30 days of fattening
# [6] = FA30 240 ppm or ZX 6 ppm, last 30 days of fattening
# [7] = 240 ppm ferulic acid, last 60 days of fattening (FA60)
# [8] = 240 ppm ferulic acid in diet, last 60 days of fattening (FA60)
# [9] = 240 ppm ferulic acid, last 60 days (FA60)
# [10] = FA30 240 ppm or ZX 6 ppm, last 30 days of fattening, listed as FA30
smiles,measurement,setting,value
"CC(C)N[C@@H]1CCn2c(=O)[nH]c3cccc(c32)[C@H]1O.Cl [ZX, zilpaterol hydrochloride, reference compound]",Cooking loss,Longissimus dorsi muscle [1]; [4],19.20^b %
same,Fat content,Longissimus dorsi muscle [1]; [4],2.36%
same,Hue angle,Longissimus dorsi muscle [1]; [4],36.05
same,Moisture,Longissimus dorsi muscle [1]; [4],73.02%
same,WHC: water holding capacity,Longissimus dorsi muscle [1]; [4],25.13%
same,SF: shear force,Longissimus dorsi muscle [1]; [4],10.37^b kg F
same,L* value,Longissimus dorsi muscle [1]; [4],35.34
same,a* value,Longissimus dorsi muscle [1]; [4],16.39
same,b* value,Longissimus dorsi muscle [1]; [4],11.95
same,pH,Longissimus dorsi muscle [1]; [4],5.57
same,CY: carcass yield,beef cattle; [5],61.53^b %
same,FW: final weight,beef cattle; [5],579.4 kg
same,HCW: hot carcass weight,beef cattle; [5],356.34 kg
same,CCW: cold carcass weight,beef cattle; [5],350.62 kg
same,BFT: back fat thickness,beef cattle; [4],3.05 mm
same,PH24: pH at 24 h postmortem,beef cattle; [4],5.63
same,REA: rib eye area,beef cattle; [4],15.41 Inch^2
same,PH45: pH at 45 min postmortem,beef cattle; [4],6.17^a
same,Tenderness,Longissimus dorsi muscle [2]; [6],6.85^a
same,Connective tissue perception,Longissimus dorsi muscle [2]; [6],1.42
same,Fat perception,Longissimus dorsi muscle [2]; [6],3.34
same,Flavor intensity,Longissimus dorsi muscle [2]; [6],6.56^a
same,Juiciness,Longissimus dorsi muscle [2]; [6],6.00^a
same,Odor intensity,Longissimus dorsi muscle [2]; [6],7.89
same,Appearance,Longissimus dorsi muscle [2]; [6],7.17
same,Overall Color,Longissimus dorsi muscle [2]; [6],7.41
"COc1cc(/C=C/C(=O)O)ccc1O [ferulic acid, trans-4-hydroxy-3-methoxy cinnamic acid]",thickness of the dorsal fat,pigs,decrease in the thickness of the dorsal fat
same,color parameter a* (redness) during shelf life,"Longissimus dorsi muscle [3]; film wrapped meat at 4 and 5° C., days 1-9, 240 ppm ferulic acid last 30 days of fattening, FIG. 1, listed as FA30",delayed effect of the deterioration of the red color of the meat; also recorded: maintained the highest values of a* until day 7 of storage
same,TBA values (lipid oxidation) during shelf life,"Longissimus dorsi muscle [3]; film wrapped meat at 4 and 5° C., days 1-9, 240 ppm ferulic acid last 30 days of fattening",lower; also recorded: smaller increases in TBA values
same,TBA values (lipid oxidation) during shelf life,"Longissimus dorsi muscle [3]; film wrapped meat at 4 and 5° C., days 1-9, 240 ppm ferulic acid last 60 days of fattening",faster oxidation
same,photographic pattern of changes of meat color during shelf life,"Longissimus dorsi muscle [3]; refrigerated storage, 240 ppm ferulic acid last 30 days of fattening, FIG. 3",maintain the red meat color with less changes until day 7 of storage
same,Cooking loss,Longissimus dorsi muscle [1]; [4],17.65^ab %
same,Fat content,Longissimus dorsi muscle [1]; [4],2.13%
same,Hue angle,Longissimus dorsi muscle [1]; [4],36.79
same,Moisture,Longissimus dorsi muscle [1]; [4],73.10%
same,WHC: water holding capacity,Longissimus dorsi muscle [1]; [4],25.73%
same,Cooking loss,Longissimus dorsi muscle [1]; [7],19.65^b %
same,Fat content,Longissimus dorsi muscle [1]; [7],2.52%
same,Hue angle,Longissimus dorsi muscle [1]; [7],37.13
same,Moisture,Longissimus dorsi muscle [1]; [7],73.41%
same,WHC: water holding capacity,Longissimus dorsi muscle [1]; [7],25.44%
same,SF: shear force,Longissimus dorsi muscle [1]; [4],values significantly lower
same,SF: shear force,"Longissimus dorsi muscle [1]; 240 ppm ferulic acid (FA30) or 6 ppm zilpaterol hydrochloride (ZX), last 30 days of fattening, listed as FA30",7.94^a kg F
same,SF: shear force,Longissimus dorsi muscle [1]; [7],8.32^ab kg F
same,L* value,Longissimus dorsi muscle [1]; [4],36.66
same,L* value,Longissimus dorsi muscle [1]; [7],35.74
same,a* value,Longissimus dorsi muscle [1]; [4],16.86
same,a* value,Longissimus dorsi muscle [1]; [7],17.55
same,b* value,Longissimus dorsi muscle [1]; [4],12.53
same,b* value,Longissimus dorsi muscle [1]; [7],13.22
same,pH,Longissimus dorsi muscle [1]; [4],5.54
same,pH,Longissimus dorsi muscle [1]; [7],5.57
same,FW: final weight,beef cattle; [5],553.5 kg
same,HCW: hot carcass weight,beef cattle; [5],336.42 kg
same,CCW: cold carcass weight,beef cattle; [5],331.13 kg
same,BFT: back fat thickness,beef cattle; [4],4.29 mm
same,PH24: pH at 24 h postmortem,beef cattle; [4],5.63
same,REA: rib eye area,beef cattle; [4],14.54 Inch^2
same,CY: carcass yield,beef cattle; [8],59.85^ab %
same,FW: final weight,beef cattle; [8],551.9 kg
same,HCW: hot carcass weight,beef cattle; [8],330.42 kg
same,CCW: cold carcass weight,beef cattle; [8],325.42 kg
same,BFT: back fat thickness,beef cattle; [7],4.38 mm
same,PH24: pH at 24 h postmortem,beef cattle; [7],5.61
same,REA: rib eye area,beef cattle; [7],14.21 Inch^2
same,PH45: pH at 45 min postmortem,beef cattle; [4],6.54^b
same,PH45: pH at 45 min postmortem,beef cattle; [7],6.33^ab
same,Tenderness,Longissimus dorsi muscle [2]; [9],7.54^ab
same,Tenderness,Longissimus dorsi muscle [2]; [6],more tender
same,Tenderness,Longissimus dorsi muscle [2]; [10],7.68^b
same,Connective tissue perception,Longissimus dorsi muscle [2]; [9],1.50
same,Fat perception,Longissimus dorsi muscle [2]; [9],3.62
same,Flavor intensity,Longissimus dorsi muscle [2]; [9],7.32^ab
same,Juiciness,Longissimus dorsi muscle [2]; [9],6.76^ab
same,Odor intensity,Longissimus dorsi muscle [2]; [9],7.90
same,Connective tissue perception,Longissimus dorsi muscle [2]; [6],1.57
same,Fat perception,Longissimus dorsi muscle [2]; [6],3.22
same,Flavor intensity,Longissimus dorsi muscle [2]; [6],better flavored
same,Juiciness,Longissimus dorsi muscle [2]; [6],juicier
same,Odor intensity,Longissimus dorsi muscle [2]; [6],8.05
same,Flavor intensity,Longissimus dorsi muscle [2]; [10],7.73^b
same,Juiciness,Longissimus dorsi muscle [2]; [10],7.09^b
same,Appearance,Longissimus dorsi muscle [2]; [9],7.11
same,Overall Color,Longissimus dorsi muscle [2]; [9],7.65
same,Appearance,Longissimus dorsi muscle [2]; [6],7.41
same,Overall Color,Longissimus dorsi muscle [2]; [6],7.51
CC(CCc1ccc(O)cc1)NCC(O)c1ccc(O)cc1 (stereo not drawn) [ractopamine],shear force of meat,feedlot steers,significant increase in the shear force
